{"source": "patent US20040058999A1", "about": "“Compounds with anti-hiv activity” (priority 2002, published 2004)", "key": {"[1]": {"tested_on": "HIV virus", "type": "cell-based", "conditions": "for Neutralization Index: 200 μg/ml, 37°-1 h; for Viral titre after incubation at 37°-1 h with 200 μg/ml of drug: mean of 3 experiments"}, "[2]": {"tested_on": "HIV virus", "assay": "Viral growth curve in infected lymphoblasts cultures in the presence of the tested compounds", "type": "cell-based", "description": "(§1) Lymphoblasts cultures in stationary tubes (inoculum 200,000 cells/ml) at the 4th day from implant were used. A lactalbumin medium enriched with 20% decomplemented calf serum medium was used as culture medium (TC) and, as maintaining medium (TM), after infection of the cultures, a 199 supplemented with 1% bovine crystallized albumin and 2% calf serum was used. All media were added with penicillin (100 U.I/ml) and streptomycin (100 μg/ml). Viral dilutions were carried out with 199 only.\nXenalamine (p-α-ethoxy-p-phenyl-phenacylaminobenzoic acid), xenalic acid (p-(4-biphenyl-glyoxylidene)-amino-benzoic acid) at a 12.5 μg dose; xenaldial (4,4′-bis-diphenylglyoxal hydrate) at a 25 μg dose.\nThe following procedure was used to evaluate the viral growth curve in the presence of the tested compounds: cultures were infected with 1 ml of viral fluid containing a cytopathogenic dose to obtain an about 1:1 LD50/cell ratio. 1 Hour after the infection at +36° C. and repeated washings with Hanks balanced saline solution, the viral fluid was replaced with TM for the control groups and with TM+drug for the tested cultures.\nAt time intervals, aliquots from three cultures were taken, washed with Hanks solution, then added with 1 ml of TM and frozen at −30° C.\nAt the end of the experiment, the culture fluids were thawed and refrozen twice, pooling each aliquot, then titred simultaneously with the corresponding fluids separated before freezing."}, "[3]": {"tested_on": "HTLV IIIB", "assay": "HTLV IIIB-inhibitory activity on cultures of lymphocytes, % virus inhibition by PCR", "type": "cell-based", "description": "HTLV IIIB-inhibitory activity of Xenaldial was tested on cultures of lymphocytes. The % virus inhibition was determined by means of PCR, according to the following procedure:\nDNA was extracted from 5×10^4 lymphocytes using 400 μl lysate and incubating at 56° C./60′ and at 92° C./15′. Afterwards the mixture was cooled at room temperature and kept at 4° C.\nThe oligonucleotide SK19 (41 bases—corresponding to the internal sequence of the amplified pro-viral DNA) was synthesised, dissolved in water at a final concentration of 20 μm and 5′-labelled with polynucleotide kinase and ^32P-ATP.\nReagent preparation: Nucleotides: 125 μl of each nucleotide 10 mM were diluted to 1 ml with H2O (final concentration 1.25 mM); buffer 10×: KCl 2M—250 μl, TrisCl 1M pH8.3—100 μl, MgCl2 1M—20 μl, gelatine—10 mg, diluted to 1 ml with H2O;\nOligonucleotide pair: oligonucleotides SK38 and 39 were synthesised, purified and dissolved in a concentration of 200-300 μM.\nReaction: mixing buffer 10×, nucleotides (1.25 mM), oligonucleotide primer SK38 and SK39 15 μM, lysate, Taq polymerase 5 U/μl; denaturation 90° C./60′, annealing 55° C./30′, polymerisation 72° C./30′; repeat the cycle 30 times."}, "[4]": {"tested_on": "Lymphoblasts cultures", "assay": "Maximal dose tolerated by the cultures", "type": "cell-based", "conditions": "established in previous experiments", "description": "as §1\nThe dose used for each drug is the maximal dose tolerated by the cultures, established in previous experiments."}, "[5]": {"tested_on": "A-PR8 Influenza virus", "conditions": "in words; cited from earlier work"}, "[6]": {"tested_on": "MHV-3 hepatitis virus", "conditions": "in words; cited from earlier work"}, "[7]": {"tested_on": "various Arborvirus, Poxvirus, Nitavirus and Myxovirus strains", "conditions": "in words; cited from earlier work"}}, "note": "Like-named read-outs stand apart in the source and are kept apart here."}
{"smiles": "O.O.O=CC(=O)c1ccc(-c2ccc(C(=O)C=O)cc2)cc1", "note": "[xenaldial, 4-4′-bis-biphenylglyoxal dihydrate]", "values": [{"measurement": "reduction of the pathogenic activity of the virus upon exposure (% of the logarithmic values compared with controls)", "setting": "[1]; high viral titre", "result": 8.3, "unit": "%"}, {"measurement": "Neutralization Index", "setting": "[1]; high viral titre (starting stock 6.5)", "result": 0.5}, {"measurement": "Viral titre after incubation at 37°-1 h with 200 μg/ml of drug", "setting": "[1]; high viral titre: starting stock titre 6.5, control after incubation 6.2", "result": 6.0}, {"measurement": "virucidal activity (on extracellular viral particles)", "setting": "[1]; in words", "result": "marked virucidal activity"}, {"measurement": "reduction of the pathogenic activity of the virus upon exposure (% of the logarithmic values compared with controls)", "setting": "[1]; low viral titre", "result": 42.8, "unit": "%"}, {"measurement": "Neutralization Index", "setting": "[1]; low viral titre (starting stock 4.5)", "result": 1.5}, {"measurement": "Viral titre after incubation at 37°-1 h with 200 μg/ml of drug", "setting": "[1]; low viral titre: starting stock titre 4.5, control after incubation 3.5", "result": 2.0}, {"measurement": "delay in the appearance of the virus in fluids compared with controls", "setting": "[2]; drug added 1 h after infection, xenalamine 12.5 μg/ml, xenaldial 25 μg/ml", "result": 24, "unit": "h"}, {"measurement": "reduction of the intra- and extracellular virus amount compared with controls, time up to which observed", "setting": "[2]; xenaldial 25 μg/ml added 1 h and again 48 hours after the infection", "result": "up to 120 hours"}, {"measurement": "Inhibition %", "setting": "[3]; 0.001 μM", "result": 44, "unit": "%"}, {"measurement": "Inhibition %", "setting": "[3]; 0.01 μM", "result": 30, "unit": "%"}, {"measurement": "Inhibition %", "setting": "[3]; 0.1 μM", "result": 12, "unit": "%"}, {"measurement": "Inhibition %", "setting": "[3]; 1 μM", "result": 16, "unit": "%"}, {"measurement": "Inhibition %", "setting": "[3]; 5 μM", "result": 42, "unit": "%"}, {"measurement": "Inhibition %", "setting": "[3]; 20 μM", "result": 26, "unit": "%"}, {"measurement": "Inhibition %", "setting": "[3]; 60 μM", "result": 59, "unit": "%"}, {"measurement": "Inhibition %", "setting": "[3]; 100 μM", "result": 77, "unit": "%"}, {"measurement": "maximal dose tolerated by the cultures", "setting": "[4]", "result": 25, "unit": "µg"}, {"measurement": "antiviral activity", "setting": "[5]", "result": "active"}, {"measurement": "antiviral activity", "setting": "[6]", "result": "active"}, {"measurement": "antiviral activity", "setting": "[7]", "result": "active"}]}
{"smiles": "O=C(O)c1ccc(N=CC(=O)c2ccc(-c3ccccc3)cc2)cc1", "note": "[xenalic acid, p-(4-biphenyl-glyoxylidene)-amino-benzoic acid]", "values": [{"measurement": "virucidal activity (on extracellular viral particles)", "setting": "[1]", "result": "marked virucidal activity"}, {"measurement": "inhibitory effect on intracellular viral replication", "setting": "[2]; same experimental conditions, compared with xenaldial", "result": "lower than that of xenaldial"}, {"measurement": "maximal dose tolerated by the cultures", "setting": "[4]", "result": 12.5, "unit": "µg"}]}
